Experimental data reported in paper PMC10220917, “Transdermal Delivery of α-Aminophosphonates as Semisolid Formulations—An In Vitro-Ex Vivo Study” (Pharmaceutics, 2023).
“And” between values parts separate entries of the source, which are not always exact repeats. Identical values can stand only once.

Tests used:
[1] = Drug release in static Franz diffusion cells through cellulose acetate membrane; format: in vitro ADME; settings: 2% cream, Franz cell, 32 °C
Protocol: (§1) For the in vitro studies, cellulose acetate filter with pore size of 0.45 μm (Sartorius AG, Göttingen, Germany) was cut to size (35 mm and 18 mm diameter discs for Franz diffusion cell and skin-on-a-chip microfluidic system, respectively) and soaked in isopropyl myristate (Molar Chemicals Kft., Halásztelek, Hungary) for 30 min before the experiment. The excess of isopropyl myristate was removed, and the impregnated cellulose acetate membrane was placed into the Franz diffusion cell or microfluidic diffusion chamber.
Hanson 6-Cell Manual Diffusion Test System-type vertical diffusion cells (Franz cell) were used (Hanson Research Corp., Chatsworth CA, USA; ABL&E-JASCO Hungary Kft., Budapest, Hungary, Figure 1A). Each unit was composed of a donor chamber, which was filled with 1000 µL of the aminophosphonate cream by a Microman E piston gel positive replacement pipette (Gilson, Middleton, WI, USA). The sample was layered in a uniform layer on the top of the membrane. The weight of the sample was measured with analytical accuracy. […]
(§2) The Franz diffusion cell data and the skin-on-a-chip data were averaged, and the means and standard error of the mean (SE) were calculated and presented. Area under the curve (AUC) values were calculated using Origin Pro software. […]

[2] = Drug penetration in static Franz diffusion cells through excised rat skin; format: in vitro ADME, male Wistar rats; settings: 2% cream, Franz cell, 32 °C
Protocol: In the ex vivo experiments, the abdominal skin of male Wistar rats (ToxiCoop, Budapest, Hungary), with 520–609 g bodyweight, were used. The animals had free access to food and water before the study. The experiments were performed in compliance with the guidelines of the Association for Assessment and Accreditation of Laboratory Animal Care International and were in accordance with the spirit of the license issued by the Directorate for the Safety of the Food Chain and Animal Health, Budapest, and Pest Agricultural Administrative Authority, Hungary (PE/EA/4122-7/2016). The rats were anaesthetized intraperitoneally with chloral hydrate (400 mg/kg). The abdominal surface was shaved with an electric shaver and epilated with an epilator cream (X-epil, Aveola Kft., Budapest, Hungary). […] The double-layered skin (pinched together by hand) thickness of the epilated tape-stripped skin was measured with an engineer’s micrometer (Asimeto, Budapest, Hungary). […]
Hanson 6-Cell Manual Diffusion Test System-type vertical diffusion cells (Franz cell) were used (Hanson Research Corp., Chatsworth CA, USA; ABL&E-JASCO Hungary Kft., Budapest, Hungary, Figure 1A). […] The weight of the sample was measured with analytical accuracy. […]

[3] = Drug release in dynamic skin-on-a-chip microfluidic diffusion chamber through cellulose acetate membrane; format: in vitro ADME; settings: 2% cream
Protocol: as §1
The skin-on-a-chip microfluidic diffusion chamber is a polydimethylsiloxane-based system in an aluminium frame (Figure 1B). Similar to the Franz diffusion cells, it contains two compartments, and the membrane or skin is placed between them. The major advantage of this technique is the reduction in needed volumes and pieces in the required components, membranes and skins, as discussed in detail in our previous papers. The diffusion surface is 0.5 cm^2, which separates the aminophosphonate cream-containing donor chamber and the PPF-filled receptor chamber. […]
as §2

[4] = Drug penetration in dynamic skin-on-a-chip microfluidic diffusion chamber through excised rat skin; format: in vitro ADME, male Wistar rats; settings: 2% cream; for Cmax (cumulative mass penetrated through excised skin): dynamic cell, excised rat skin, 5 h; for Effect of higher temperature on absorption across excised skins: 32 °C vs 23.5 °C, dynamic diffusion cells
Protocol: In the ex vivo experiments, the abdominal skin of male Wistar rats (ToxiCoop, Budapest, Hungary), with 520–609 g bodyweight, were used. The animals had free access to food and water before the study. The experiments were performed in compliance with the guidelines of the Association for Assessment and Accreditation of Laboratory Animal Care International and were in accordance with the spirit of the license issued by the Directorate for the Safety of the Food Chain and Animal Health, Budapest, and Pest Agricultural Administrative Authority, Hungary (PE/EA/4122-7/2016). The rats were anaesthetized intraperitoneally with chloral hydrate (400 mg/kg). The abdominal surface was shaved with an electric shaver and epilated with an epilator cream (X-epil, Aveola Kft., Budapest, Hungary). The skin was washed, wiped dry and mechanically sensitized 10 times by tape stripping with leucoplast (BSN Medical GmbH, Hamburg, Germany) to remove the upper layers of dead keratinocytes. This technique enables reaching detectable concentrations in the dermis and hypodermis. The double-layered skin (pinched together by hand) thickness of the epilated tape-stripped skin was measured with an engineer’s micrometer (Asimeto, Budapest, Hungary). The average double-layered skin thickness was 1.53 ± 0.03 mm. After the first cutting with blunt Metzen scissors, connecting tissue, fat and blood vessels were carefully removed. For the Franz diffusion cell and skin-on-a-chip studies, full-thickness skin incisions were made by punches (Stubai GmbH, Fulpmes, Austria) in diameter of 35 mm and 18 mm, respectively. The excised samples were wrapped in aluminium foil and stored in a deep freezer at −80 °C. On the day of the study, the skin preparations were taken out from the freezer for 30 min before the initiation of the experiment and thawed at room temperature.
The skin-on-a-chip microfluidic diffusion chamber is a polydimethylsiloxane-based system in an aluminium frame (Figure 1B). Similar to the Franz diffusion cells, it contains two compartments, and the membrane or skin is placed between them. The major advantage of this technique is the reduction in needed volumes and pieces in the required components, membranes and skins, as discussed in detail in our previous papers. The diffusion surface is 0.5 cm^2, which separates the aminophosphonate cream-containing donor chamber and the PPF-filled receptor chamber. Contrary to the static Franz diffusion cells, the microfluidic diffusion chamber is a dynamic system, i.e., the PPF flow is continuous in the receptor compartment, ensured by a syringe pump (NE-1000, New Era, Farmingdale, NY, USA), which includes a 5 mL syringe filled with PPF, at a flow rate of 4 µL/min during the experiment. The PPF solution was running through the chip, filling the receptor chamber and the microfluidic channel and leaving the device at the outlet into collection vials. The samples were collected every 30 min for 5 h. The collected samples were placed on dry ice and stored at −80 °C until the bioanalysis. First, the experiments were performed at room temperature (23.5 °C) with temperature regulation by automatic air conditioning system in the lab in three parallels. The investigations were then repeated at 32 °C, putting the whole system into an incubator (Steriliser SN160, Memmert GmbH, Schwabach, Germany). As the volume capacity of incubator was low, only one syringe pump and skin-on-a-chip could be tested in the instrument at the same time. […]

[5] = Particle size (droplet size) distribution of 2% creams by laser diffraction; format: physicochemical; settings: 2% cream formulation
Source text: α-Aminophosphonates were dispersed in the following hydrophilic cream base (O/W emulsion ointments): 46 m/m% Petrolatum ointment base, 10 m/m% Propylene glycol (Hungaropharma Zrt., Budapest, Hungary), 4 m/m% Paraffin oil (Hungaropharma Zrt., Budapest, Hungary), 38 m/m% Purified water. The components of the Petrolatum ointment base were 26 m/m% Vaselinum album (Hungaropharma Zrt., Budapest, Hungary), 12 m/m% Cetostearyl alcohol (Molar Chemicals Kft, Halásztelek, Hungary), 10 m/m% Propylene glycol, 8 m/m% Paraffin oil, 4 m/m% Polyoxyethylene sorbitan monostearate (Poly-sorbate 60) (Hungaropharma Zrt. Budapest, Hungary), and 40 m/m% Purified water (Table 3). The concentration of propylene glycol was set based on the recommendations on topical dosage forms.
The particle size distribution was measured with a Malvern Mastersizer2000 (Malvern Instruments Ltd., Malvern, UK) laser diffraction device. In total, 1 g of sample was dispersed in 10 mL of water, and after 1 min of Vortex shaking, 1 mL was taken and added to the sample dispenser unit containing 100 mL of purified water. The dispenser unit was applied at 1500 RPM.
The multi-channel detector system measured the scattering of red laser light with a wavelength of […], and the evaluation software provided the results after three parallel exposures according to the Fraunhofer method. The average curves were calculated from three parallel measurements. […]

[6] = tested on: multidrug-resistant (MDR) uterine sarcome cell line; parameters: method as in earlier work; settings: MDR uterine sarcoma cells; cited from earlier work

Compound	Penetration kinetics in the membrane [1]	Cmax (cumulative mass released through membrane) ([1]; cellulose acetate membrane, 5 h)	Penetration profile in rat skin [2]	Cmax (cumulative mass penetrated through excised skin) ([2]; excised rat skin, 5 h)	Cmax (cumulative mass released through membrane) ([3]; dynamic cell, cellulose acetate membrane, 32 °C, 5 h)	Effect of higher temperature on penetration through membranes ([3]; 32 °C vs 23.5 °C, dynamic diffusion cells)	Cmax (cumulative mass penetrated through excised skin) ([4]; 32 °C)	Cmax (cumulative mass penetrated through excised skin) ([4]; ambient temperature (23.5 °C))	Effect of higher temperature on absorption across excised skins [4]	Particle (droplet) size d of main peak [5]	Volume share at main particle size peak [5]	Degree of cytotoxicity [6]	Particle (droplet) size d of second peak [5] [µm]	Volume share at second particle size peak [5]
CCOP(=O)(OCC)C(NCc1ccccc1)c1ccccc1 (stereo not drawn) [1a]	rapid and saturating	~ 330 µg/cm^2	almost linear growing profile	~ 21 µg/cm^2	~ 300 µg/cm^2	only moderately enhanced	~ 9 µg/cm^2	~ 2.8 μg/cm^2	significantly improved	33.156 µm and 33 µm	7%	less cytotoxic		
CCOP(=O)(OCC)C(NCc1ccccc1)c1ccc(C)cc1 (stereo not drawn) [1b]									practically independent of the temperature	30–40 µm	about 6.3%	most effective	110	about 3.2%
CCOP(=O)(OCC)C(NCc1ccccc1)c1ccc(Cl)cc1 (stereo not drawn) [1c]									significantly improved	20–30 µm	7.3%	most effective	110	~ 3.0%
